Test system: 616215-338-R-J1-PDC complex spheroid viability
Assay: Anticancer human tumor 616215-338-R-J1-PDC patient-derived colon adenocarcinoma cell line growth inhibition [RAS]
Conditions: for IC50: curve of first compound; for viability, T/C: stronger effect = lower value
In short: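 Multi-cell-type spheroids: tumor cells plus HUVEC endothelial cells and mesenchymal stem cells. RAS-pathway inhibitors were combined with targeted agents, each dosed in half-log steps down from clinical Cmax, or from 10 microM when Cmax was unknown.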

[1] = second compound 0.000949 µM, first compound 0.0316 µM
[2] = second compound 0.000949 µM, first compound 0.1 µM
[3] = second compound 0.000949 µM, first compound 0.316 µM
[4] = second compound 0.000949 µM, first compound 1 µM
[5] = second compound 0.000949 µM, first compound 3.16 µM
[6] = second compound 0.000949 µM, first compound 10 µM
[7] = second compound 0.003 µM, first compound 0.0316 µM
[8] = second compound 0.003 µM, first compound 0.1 µM
[9] = second compound 0.003 µM, first compound 0.316 µM
[10] = second compound 0.003 µM, first compound 1 µM
[11] = second compound 0.003 µM, first compound 3.16 µM
[12] = second compound 0.003 µM, first compound 10 µM
[13] = second compound 0.00949 µM, first compound 0.0316 µM
[14] = second compound 0.00949 µM, first compound 0.1 µM
[15] = second compound 0.00949 µM, first compound 0.316 µM
[16] = second compound 0.00949 µM, first compound 1 µM
[17] = second compound 0.00949 µM, first compound 3.16 µM
[18] = second compound 0.00949 µM, first compound 10 µM
[19] = second compound 0.03 µM, first compound 0.0316 µM
[20] = second compound 0.03 µM, first compound 0.1 µM
[21] = second compound 0.03 µM, first compound 0.316 µM
[22] = second compound 0.03 µM, first compound 1 µM
[23] = second compound 0.03 µM, first compound 3.16 µM
[24] = second compound 0.03 µM, first compound 10 µM
[25] = second compound 0.0949 µM, first compound 0.0316 µM
[26] = second compound 0.0949 µM, first compound 0.1 µM
[27] = second compound 0.0949 µM, first compound 0.316 µM
[28] = second compound 0.0949 µM, first compound 1 µM
[29] = second compound 0.0949 µM, first compound 3.16 µM
[30] = second compound 0.0949 µM, first compound 10 µM
[31] = second compound 0.3 µM, first compound 0.0316 µM
[32] = second compound 0.3 µM, first compound 0.1 µM
[33] = second compound 0.3 µM, first compound 0.316 µM
[34] = second compound 0.3 µM, first compound 1 µM
[35] = second compound 0.3 µM, first compound 3.16 µM
[36] = second compound 0.3 µM, first compound 10 µM
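Note: spheroids exposed to agents for seven days before viability readout.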
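Throughout, for viability, T/C: 100% = DMSO vehicle control viability.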

Cc1nc(N2CCC3(CC2)COC(C)C3N)c(CO)nc1Sc1ccnc(N)c1Cl (stereo unspecified) + CCn1c(-c2cccnc2C(C)OC)c2c3cc(ccc31)N1CCOC(CC(NC(=O)C(C(C)C)N(C)C(=O)C3(F)CCN(C(=O)C#CC(C)(C)N(C)C)CC3)C(=O)N3CCCC(N3)C(=O)OCC(C)(C)C2)C1
IC50 (second compound 0.000949 µM): > 10000 nM
IC50 (second compound 0.003 µM): > 10000 nM
IC50 (second compound 0.00949 µM): > 10000 nM
IC50 (second compound 0.03 µM): > 10000 nM
IC50 (second compound 0.0949 µM): > 10000 nM
IC50 (second compound 0.3 µM): 7520 nM
viability, T/C [1]: 112%
viability, T/C [2]: 106%
viability, T/C [3]: 117%
viability, T/C [4]: 96.8%
viability, T/C [5]: 80.1%
viability, T/C [6]: 72.3%
viability, T/C [7]: 110%
viability, T/C [8]: 112%
viability, T/C [9]: 103%
viability, T/C [10]: 92.6%
viability, T/C [11]: 79.6%
viability, T/C [12]: 69.6%
viability, T/C [13]: 113%
viability, T/C [14]: 108%
viability, T/C [15]: 111%
viability, T/C [16]: 93.3%
viability, T/C [17]: 92.6%
viability, T/C [18]: 62.8%
viability, T/C [19]: 116%
viability, T/C [20]: 114%
viability, T/C [21]: 101%
viability, T/C [22]: 97.8%
viability, T/C [23]: 86.1%
viability, T/C [24]: 59.1%
viability, T/C [25]: 117%
viability, T/C [26]: 120%
viability, T/C [27]: 96.8%
viability, T/C [28]: 74.2%
viability, T/C [29]: 62.5%
viability, T/C [30]: 53.8%
viability, T/C [31]: 102%
viability, T/C [32]: 84%
viability, T/C [33]: 77%
viability, T/C [34]: 68.3%
viability, T/C [35]: 52.6%
viability, T/C [36]: 49.2%

NC1c2ccccc2OC12CCN(c1cnc3c(N4CCCc5ncccc54)n[nH]c3n1)CC2 (stereo unspecified) + CCn1c(-c2cccnc2C(C)OC)c2c3cc(ccc31)N1CCOC(CC(NC(=O)C(C(C)C)N(C)C(=O)C3(F)CCN(C(=O)C#CC(C)(C)N(C)C)CC3)C(=O)N3CCCC(N3)C(=O)OCC(C)(C)C2)C1
IC50 (second compound 0.000949 µM): 6250 nM
IC50 (second compound 0.003 µM): 7000 nM
IC50 (second compound 0.00949 µM): > 10000 nM
IC50 (second compound 0.03 µM): 2960 nM
IC50 (second compound 0.0949 µM): 1700 nM
IC50 (second compound 0.3 µM): 564 nM
viability, T/C [1]: 121%
viability, T/C [2]: 92.4%
viability, T/C [3]: 81.9%
viability, T/C [4]: 67.8%
viability, T/C [5]: 61%
viability, T/C [6]: 43.1%
viability, T/C [7]: 119%
viability, T/C [8]: 94.7%
viability, T/C [9]: 75.5%
viability, T/C [10]: 64.8%
viability, T/C [11]: 64.2%
viability, T/C [12]: 43%
viability, T/C [13]: 113%
viability, T/C [14]: 85.2%
viability, T/C [15]: 72.7%
viability, T/C [16]: 59%
viability, T/C [17]: 64.6%
viability, T/C [18]: 49.5%
viability, T/C [19]: 106%
viability, T/C [20]: 85.1%
viability, T/C [21]: 76.9%
viability, T/C [22]: 56.4%
viability, T/C [23]: 56.7%
viability, T/C [24]: 35%
viability, T/C [25]: 105%
viability, T/C [26]: 75.7%
viability, T/C [27]: 59.4%
viability, T/C [28]: 56.3%
viability, T/C [29]: 51.8%
viability, T/C [30]: 38.5%
viability, T/C [31]: 73.4%
viability, T/C [32]: 58%
viability, T/C [33]: 56.2%
viability, T/C [34]: 46.6%
viability, T/C [35]: 42.8%
viability, T/C [36]: 41%

Nc1ccn(C2OC(CO)C(O)C2(F)F)c(=O)n1 (stereo unspecified) + CCn1c(-c2cccnc2C(C)OC)c2c3cc(ccc31)N1CCOC(CC(NC(=O)C(C(C)C)N(C)C(=O)C3(F)CCN(C(=O)C#CC(C)(C)N(C)C)CC3)C(=O)N3CCCC(N3)C(=O)OCC(C)(C)C2)C1
IC50 (second compound 0.000949 µM): 15.2 nM
IC50 (second compound 0.003 µM): 11.2 nM
IC50 (second compound 0.00949 µM): 14.6 nM
IC50 (second compound 0.03 µM): 11.5 nM
IC50 (second compound 0.0949 µM): 10.1 nM
IC50 (second compound 0.3 µM): 9.55 nM
viability, T/C (second compound 0.000949 µM, first compound 0.00316 µM): 105%
viability, T/C (second compound 0.000949 µM, first compound 0.01 µM): 62.8%
viability, T/C [1]: 28%
viability, T/C [2]: 13.1%
viability, T/C [3]: 16.3%
viability, T/C [4]: 14.2%
viability, T/C (second compound 0.003 µM, first compound 0.00316 µM): 114%
viability, T/C (second compound 0.003 µM, first compound 0.01 µM): 51.5%
viability, T/C [7]: 29%
viability, T/C [8]: 14.6%
viability, T/C [9]: 11.6%
viability, T/C [10]: 12.4%
viability, T/C (second compound 0.00949 µM, first compound 0.00316 µM): 108%
viability, T/C (second compound 0.00949 µM, first compound 0.01 µM): 61.2%
viability, T/C [13]: 27.5%
viability, T/C [14]: 14.7%
viability, T/C [15]: 14.1%
viability, T/C [16]: 13.2%
viability, T/C (second compound 0.03 µM, first compound 0.00316 µM): 114%
viability, T/C (second compound 0.03 µM, first compound 0.01 µM): 53.9%
viability, T/C [19]: 22.2%
viability, T/C [20]: 14.9%
viability, T/C [21]: 14.6%
viability, T/C [22]: 13.5%
viability, T/C (second compound 0.0949 µM, first compound 0.00316 µM): 95.7%
viability, T/C (second compound 0.0949 µM, first compound 0.01 µM): 50.1%
viability, T/C [25]: 22.9%
viability, T/C [26]: 14.3%
viability, T/C [27]: 15.2%
viability, T/C [28]: 12.6%
viability, T/C (second compound 0.3 µM, first compound 0.00316 µM): 69.7%
viability, T/C (second compound 0.3 µM, first compound 0.01 µM): 48.9%
viability, T/C [31]: 27.8%
viability, T/C [32]: 16.6%
viability, T/C [33]: 17%
viability, T/C [34]: 17%
